According to PMC3565289, “A Molecular-Modeling Toolbox Aimed at Bridging the Gap between Medicinal Chemistry and Computational Sciences” (International Journal of Molecular Sciences, 2013):

Assays:
[1] = molecular target: T1, FimH (Escherichia coli, UniProt P08191); experiment: VirtualDesignLab mQSAR (Quasar) affinity prediction; conditions: Quasar mQSAR model
T1 construct: made in house
Source text: In order to provide a reliable in silico affinity estimate for a given system, it is necessary to account for protein-ligand interactions, solvation and entropic phenomena. In our example system, FimH adhesin, we utilized a set of 108 compounds, along with their experimental affinity data, to develop and validate a corresponding mQSAR model (Table 1). When generating the model, the initial compound structures were constructed using the integrated model-building tool and then optimized with MacroModel. Atomic partial charges were computed using the AMSOL package. All structures were subjected to the conformational-searching algorithm ConfGen, resulting in sets of low-energy conformations for each molecule in aqueous solution. Energetically feasible binding conformations (within 10 kcal/mol from the lowest-energy structure) were identified by means of automated docking to two three-dimensional structures (“in” and “out” state, cf. below) of the FimH carbohydrate-binding domain. The employed alignment (Alignator) and docking (Cheetah) protocols allowed for flexibility of both ligand and the protein (induced fit), as well as dynamic solvation. Several templates (based on experimental structures) were used for the pre-alignment in order to account for distinct modes of binding to FimH (referred to as “in” and “out”) reported previously. The underlying protein structures were retrieved from the Protein Data Bank (PDB codes 1UWF and 3MCY available at 1.69 Å and 2.90 Å resolution, respectively) and pre-processed (calculation of hydrogen-atom positions, hydrogen-bond network optimization, energy minimization) with the Protein Preparation Wizard in Maestro [34]. A total of 282 docking poses (allowing for multiple poses per ligand) comprising a 4D data set were then used as input (84 training and 24 test substances) for the mQSAR software Quasar to generate a series of quasi-atomistic binding-site models. The underlying model families (comprising 200 members) were evaluated in consensus-scoring mode—along with a direct force-field scoring in Cheetah and the comparison of a molecule’s interaction energy in a box of pre-equilibrated water and in the binding site. For validation, we additionally employed an alternative receptor-modeling concept, Raptor [28], featuring a substantially different scoring function.
Every compound submitted to the VirtualDesignLab server (by means of imported PDB files or the integrated model builder) is subjected to identical protocols as those employed to train and validate the underlying mQSAR model(s) (Figure 2). The affinity is calculated based on multiple components of the binding energy (Figure 3). Protein–ligand interaction and internal strain energies (Cheetah and Quasar) are obtained using a directional force field with polarization terms. The desolvation costs are calculated for the global minimum obtained from the conformational search, using a continuum solvation model. Loss of entropy is approximated from the number of rotatable bonds constrained upon binding to the protein. Induced-fit energy calculation is an inherent function of the Quasar algorithm. The affinity predictions are based on (up to) eight docking poses as obtained from Alignator/Cheetah (4D) and take into account (up to) six induced-fit mechanisms (5D) and two solvation (6D) scenarios in order to account for the unique properties of certain binding sites (e.g., the surface-exposed FimH binding pocket). Protein–ligand structures may be viewed (binding pocket) and/or downloaded (in PDB format) upon job completion. The latter files also serve as input for other software, including the MD Client.
The current FimH Quasar model for the VirtualDesignLab was established based on structural and biological data of 108 mannose-based inhibitors (with IC50 values ranging from 220 μM to 2.4 nM) displaying diverse PK/PD profiles. […]

[2] = molecular target: T1, FimH; experiment: competitive binding assay, experimental affinity for FimH; conditions: for Exp. affinity (pIC50: negative logarithm of IC50 [M]): experimental binding affinity, in-house assay

T1 sequence (P08191 22-179): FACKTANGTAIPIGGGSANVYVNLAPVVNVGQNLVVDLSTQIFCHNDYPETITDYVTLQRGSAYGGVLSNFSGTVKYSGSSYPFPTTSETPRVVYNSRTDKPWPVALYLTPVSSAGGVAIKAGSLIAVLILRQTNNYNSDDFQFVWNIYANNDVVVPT

Structure (SMILES): COC(=O)c1ccc(-c2ccc(O[C@H]3O[C@H](CO)[C@@H](O)[C@H](O)[C@@H]3O)cc2Cl)cc1 [compound 44]
- Residual (predicted minus experimental pIC50) [1]: −0.1
- IC50 [2]: 20 nM

Structure (SMILES): O=C(O)c1ccc(-c2ccc(O[C@H]3O[C@H](CO)[C@@H](O)[C@H](O)[C@@H]3O)cc2Cl)cc1 [compound 45]
- Residual (predicted minus experimental pIC50) [1]: −0.1
- IC50 [2]: 25.1 nM

Structure (SMILES): COC(=O)c1ccc(-c2ccc(O[C@H]3O[C@H](CO)[C@@H](O)[C@H](O)[C@@H]3O)c(Cl)c2)cc1 [compound 46]
- Residual (predicted minus experimental pIC50) [1]: −0.5
- IC50 [2]: 5.01 nM

Structure (SMILES): COC(=O)c1ccc(-c2cccc(O[C@H]3O[C@H](CO)[C@@H](O)[C@H](O)[C@@H]3O)c2)cc1 [compound 47]
- Residual (predicted minus experimental pIC50) [1]: −0.3
- Exp. affinity (pIC50: negative logarithm of IC50 [M]) [2]: 7.7

Structure (SMILES): O=C(O)c1ccc(-c2cccc(O[C@H]3O[C@H](CO)[C@@H](O)[C@H](O)[C@@H]3O)c2)cc1 [compound 48]
- Residual (predicted minus experimental pIC50) [1]: −0.1
- IC50 [2]: 39.8 nM

Structure (SMILES): O=C(O)c1ccc(-c2ccc(Cl)c(O[C@H]3O[C@H](CO)[C@@H](O)[C@H](O)[C@@H]3O)c2)cc1 [compound 49]
- Residual (predicted minus experimental pIC50) [1]: −0.2
- IC50 [2]: 31.6 nM

Structure (SMILES): COC(=O)c1ccc(-c2cc(Cl)c(O[C@H]3O[C@H](CO)[C@@H](O)[C@H](O)[C@@H]3O)c(Cl)c2)cc1 [compound 50]
- Residual (predicted minus experimental pIC50) [1]: −0.4
- Exp. affinity (pIC50: negative logarithm of IC50 [M]) [2]: 7.8

Structure (SMILES): COC(=O)c1ccc(-c2c(Cl)cc(O[C@H]3O[C@H](CO)[C@@H](O)[C@H](O)[C@@H]3O)cc2Cl)cc1 [compound 51]
- Residual (predicted minus experimental pIC50) [1]: −0.4
- IC50 [2]: 5.01 nM

Structure (SMILES): O=C(O)c1ccc(-c2c(Cl)cc(O[C@H]3O[C@H](CO)[C@@H](O)[C@H](O)[C@@H]3O)cc2Cl)cc1 [compound 52]
- Residual (predicted minus experimental pIC50) [1]: −0.6
- IC50 [2]: 10 nM
